Reference: patent publication US20240197709A1, “POTENTIATING THE TUMOR-SELECTIVE EFFECTS OF NQO1-BIOACTIVATABLE AGENT BY USE OF CMET INHIBITOR” (The Trustees of Indiana University, priority 2022, published 2024)

Legend:
[1] = test system: cellular hydrogen peroxide (H2O2) levels in A549 cells; assay: ROS-Glo H2O2 Assay; assay type: cell-based; conditions: A549, β-lap 3 μM, within 15 min, further increased at two hours
Procedure: FIG. 2-1A. […] Growth media was then replaced with fresh media containing β-lap (3 μM) alone, criz alone (1 μM) or combination±DIC (50 μM) and collected at 15 and 120 min to measure H2O2 production using the ROS-Glo™ H2O2 Assay from Promega (Madison, WI). The assay was performed in three biological replicates.
(§1) Next, we sought to investigate the mechanistic role of cMET in promoting resistance to ROS-induced DNA lesions caused by the futile redox cycling of β-lap with NQO1. […] In response to H2O2 stimulation, cMET can translocate into the nucleus where it interacts with PARP1 for activation to enhance the repair of ROS-induced DNA damage. […] Next we performed PARP1 immunoprecipitation studies to determine whether it associates with activated cMET in the nucleus following treatment with β-lap at increasing doses.

[2] = test system: pY1234-cMET / PARP1; assay: PARP1 immunoprecipitation (co-IP); assay type: cell-based; conditions: A549, β-lap 3 and 6 μM for 2 h
Source text: as §1

[3] = test system: Vimentin protein expression in A549 shSCR; assay: Western blot of Vimentin, A549 shSCR versus shMET; assay type: cell-based; conditions: sub-lethal β-lap 2 h, further reduced in shMET
Procedure: FIG. 4-1C. Western blot analysis of Vimentin protein expression in A549 shSCR versus shMET treated with vehicle control or non-lethal β-lap doses for 2 h.
Overexpression of cMET in many cancers, including NSCLC and PDAC, is known to enhance cancer cell mobility, migration, and invasion (Spina, et al., Biomedicines 2015, 3(1), 71-88). […] Thus, we investigated whether treatment with non-lethal β-lap in combination with inhibition of cMET activity (i.e., via pharmacological or genetic interventions) can target and mitigate cancer invasion or migration using Boyden chamber (Chen, Methods Mol Biol 2005, 294, 15-22; Eccles, et al., Biotechnol Annu Rev 2005, 11, 391-421) and wound-healing (Liang, et al., Nat Protoc 2007, 2(2), 329-33) assays. […] Likewise, we noted a decrease in the expression of a transcription factor that promotes invasion and migration, Twist (Khan et al., Tumour Biol 2013, 34(5), 2497-506), with the combination treatment relative to vehicle control (FIG. 4E, G). Addition of DIC to the combination treatment reverted Twist and E-cadherin protein expression to almost similar level as vehicle-treated control. shRNA mediated knockdown of cMET expression in A549 and Capan2 decreased their migratory and invasive phenotypes relative to their corresponding shSCR controls, which is consistent with the canonical role of cMET in invasive cancers. […]

[4] = test system: Capan2 PDAC shMET cells; assay: transwell migration and invasion, Capan2 shSCR vs shMET; assay type: cell-based; conditions: β-lap 2 μM 2 h, versus shSCR control
Procedure: FIG. 4-1D. Representative images from in vitro transwell migration assay comparing Capan2 shSCR and Capan2 shMET treated with vehicle control or sub-lethal β-lap (2 μM, 2 h). Images were taken at 16 h post-treatment.
FIG. 4-1E. Bar graph illustrating the percentage of Capan2 shSCR vs shMET PDAC cell migration at 16 h post-treatment with vehicle or sub-lethal β-lap (2 μM, 2 h). Two-way ANOVA was used for statistical analyses; * p<0.05; **** p<0.0001.
FIG. 4-1F. Representative images from in vitro transwell invasion assay comparing Capan2 shSCR and Capan-2 shMET treated with vehicle control or sub-lethal β-lap (2 μM, 2 h). Images were taken at 16 h post-treatment.
FIG. 4-1G. Bar graph illustrating the percentage of Capan2 shSCR vs shMET PDAC cell invasion at 16 h post-treatment with vehicle or sub-lethal β-lap (2 μM, 2 h). Two-way ANOVA was used for statistical analyses; * p<0.05; **** p<0.0001.
Overexpression of cMET in many cancers, including NSCLC and PDAC, is known to enhance cancer cell mobility, migration, and invasion (Spina, et al., Biomedicines 2015, 3(1), 71-88). […]

[5] = test system: A549 shMET 3D spheroids; assay: 3D spheroid growth and viability, A549 shMET; assay type: cell-based; conditions: β-lap 3 μM
Procedure: FIG. 5A. Representative brightfield images of A549 shSCR versus shMET 3D spheroids treated with vehicle control (0.1% DMSO) or β-lap (3 μM, which is sub-lethal in A549 NSCLC cells in 2D long-term survival assays) imaged at indicated times to monitor microtumor spheroid growth. Scale bar=250 μm.
FIG. 5B. Graphical comparison of 3D spheroid (microtumor) growth of A549 shSCR vs shMET at indicated treatments over time relative to initial 3D spheroid area (day 1).
FIG. 5C. Quantification of 3D spheroid viability at day 10 (in panel A) using CellTiter-Glo® 3D Cell Viability Assay.
Studies have shown that drug sensitivity of cancer cells cultured in three-dimension (3D) more accurately predicts their sensitivity in vivo.30-31 Thus, we utilized 3D tumor spheroid growth of our isogenic A549 shSCR or shMET cancer cell lines to closely recapitulate the cell-cell interactions of human tumors32-33. After three days of spheroid formation, A549 shSCR and shMET microtumors were exposed to vehicle control (0.1% DMSO) or β-lap (3 μM, sub-lethal concentration in 2D culture for A549 parental line), and imaged over time for 3D spheroid tumor growth for comparison. […] Additionally, the viability of A549 shSCR versus shMET 3D spheroids treated with vehicle control and β-lap at day 10 was determined using CellTiter-Glo® 3D Viability Assay (FIG. 5C) for comparison. […]

[6] = test system: pY1234-cMET/PARP1 nuclear interaction, A549; conditions: A549, β-lap 3 μM, 2 h
[7] = test system: cancers with NQO1; conditions: average, most cancers with NQO1; cited from earlier work
[8] = β-lap monotherapy; cited from earlier work
[9] = HPBCD formulation; cited from earlier work
[10] = test system: pY1234-cMET (activated cMET) in the nucleus, A549; assay: Western blots of nuclear versus cytoplasmic fractions; conditions: A549, β-lap 3 μM and 6 μM for 2 h
Procedure: Images of Western blots of nuclear versus cytoplasmic fractions from A549 cells treated with vehicle (DMSO, 0.1%) control and indicated concentrations of β-lap±DIC (50 μM) for 2 h. Lamin B1 and tubulin were used as loading controls for nuclear and cytoplasmic fractions, respectively.
Bar graph depicting quantification of pY1234-cMET (activated cMET) in the nucleus at indicated treatment conditions.

Which results are given for `CC1(C)CCC2=C(O1)c1ccccc1C(=O)C2=O` [β-lap, β-Lapachone]?
relative amount of cellular H2O2 [1]: significantly increased; pY1234-cMET co-immunoprecipitated with PARP1 [2]: increasing levels of pY1234-cMET with PARP1; Vimentin expression [3]: decreased Vimentin expression; cell invasion [4]: significantly reduced; cell migration [4]: significantly reduced; 3D spheroid (microtumor) growth over time [5]: potentiated the lethal effect; 3D spheroid viability at day 10 (CellTiter-Glo 3D) [5]: more hypersensitive; in situ interaction between activated cMET and PARP1 (PLA foci) [6]: enhanced in situ interaction; LD50 [7]: 3.0 to 6.0 µM; toxicity at high doses in clinical trials [8]: methemoglobinemia and haemolysis; maximum-tolerated dose (MTD) [9]: about 25 mg/kg; translocation of activated cMET (pY1234-cMET) into the nucleus [10]: greatly enhanced
